Laboratory results reported in article PMC7158045 (BMC Plant Biology, 2020).
Where a name gives a salt, the structure may show the parent alone. Read-outs that look alike come from different tables or passages of the source.

Tests used:
Test in all cases: biochemical
[1] = biological target: T1, ZmDRIK1 (DROUGHT RESPONSIVE INACTIVE KINASE 1), kinase domain (Zea mays, UniProt C0P4K9)
T1 construct: gene ZEAMMB73_Zm00001d028770; ZmDRIK1-KD R187-S514 (kinase domain)
T1 sequence (C0P4K9 187-514): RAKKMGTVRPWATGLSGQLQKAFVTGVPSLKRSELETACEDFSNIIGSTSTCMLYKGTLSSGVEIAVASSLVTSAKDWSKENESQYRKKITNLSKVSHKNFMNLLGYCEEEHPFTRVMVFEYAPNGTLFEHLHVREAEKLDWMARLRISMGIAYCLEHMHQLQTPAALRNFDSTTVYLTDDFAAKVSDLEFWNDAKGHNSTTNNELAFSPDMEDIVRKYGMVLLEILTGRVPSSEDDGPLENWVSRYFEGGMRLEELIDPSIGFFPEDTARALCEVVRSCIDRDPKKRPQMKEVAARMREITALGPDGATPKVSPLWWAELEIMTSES

[2] = biological target: T2, ZmDRIK1-K217-S514 (Zea mays, UniProt C0P4K9)
T2 construct: kinase domain, K217-S514
T2 sequence (C0P4K9 1-514): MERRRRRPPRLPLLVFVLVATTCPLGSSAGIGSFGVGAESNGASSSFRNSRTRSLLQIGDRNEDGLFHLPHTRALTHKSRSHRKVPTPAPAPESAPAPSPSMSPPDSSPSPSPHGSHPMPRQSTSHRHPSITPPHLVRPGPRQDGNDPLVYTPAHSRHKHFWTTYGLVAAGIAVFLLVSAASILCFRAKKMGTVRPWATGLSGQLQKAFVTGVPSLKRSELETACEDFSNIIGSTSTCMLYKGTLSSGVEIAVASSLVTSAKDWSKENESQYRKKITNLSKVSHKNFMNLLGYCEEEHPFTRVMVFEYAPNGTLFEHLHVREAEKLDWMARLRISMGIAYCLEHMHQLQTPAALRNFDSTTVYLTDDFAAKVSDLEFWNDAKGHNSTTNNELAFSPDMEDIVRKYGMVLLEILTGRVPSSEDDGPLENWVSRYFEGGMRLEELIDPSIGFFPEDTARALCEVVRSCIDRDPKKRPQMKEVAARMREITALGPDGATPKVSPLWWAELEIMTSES

[3] = biological target: T3, ZmDRIK1-K217-P492 (Zea mays, UniProt C0P4K9)
T3 construct: kinase domain, K217-P492
T3 sequence (C0P4K9 1-514): T2 sequence (C0P4K9 1-514)

[4] = biological target: T4, ZmDRIK1-R187-P492 (Zea mays, UniProt C0P4K9)
T4 construct: kinase domain, R187-P492
T4 sequence (C0P4K9 1-514): T2 sequence (C0P4K9 1-514)

[5] = read-out: dTm B, sheet ZmDRIK1-R187-S514;, DSF, Boltzmann fit, 0.1% DMSO
[6] = read-out: dTm B, sheet ZmDRIK1-K217-S514;, DSF, Boltzmann fit, 0.1% DMSO
[7] = read-out: dTm B, sheet ZmDRIK1-K217-P492;, DSF, Boltzmann fit, 0.1% DMSO
[8] = read-out: dTm B, DSF, Boltzmann fit, 0.1% DMSO

Structure (SMILES) | ΔTm at 10 µM [1, 5] [°C] | ΔTm at 10 µM [2, 6] [°C] | ΔTm at 10 µM [3, 7] [°C] | ΔTm at 10 µM [4, 8] [°C] | ΔTm at 10 µM ([1]; read-out: dTm B) [°C] | ΔTm at 10 µM ([2]; read-out: dTm B) [°C] | ΔTm at 10 µM ([3]; read-out: dTm B) [°C] | ΔTm at 10 µM ([4]; read-out: dTm B) [°C]
CN[C@@H]1C[C@H]2O[C@@](C)([C@@H]1OC)n1c3ccccc3c3c4c(c5c6ccccc6n2c5c31)C(=O)NC4 [Staurosporine] | -0.601 | -0.232 | -0.631 | -0.154 |  |  |  | 
CC(C)(C)n1nc(-c2ccc(Cl)cc2)c2c(N)ncnc21 [PP2] | -0.713 | -0.458 | -1.25 | -0.394 |  |  |  | 
O=C(O)[C@]1(Cc2cccc(Nc3nccs3)n2)CC[C@@H](Oc2cccc(Cl)c2F)CC1 [MK-5108 (VX-689)] | -1.14 | -0.299 | -0.754 | -0.282 |  |  |  | 
N#CC(=C(/N)Sc1ccccc1N)/C(C#N)=C(\N)Sc1ccccc1N [U0126-EtOH] | -1.26 | -0.582 | -1.09 | -0.611 |  |  |  | 
CCN1CCN(Cc2ccc(-c3cc4c(N[C@H](C)c5ccccc5)ncnc4[nH]3)cc2)CC1 [AEE788 (NVP-AEE788)] | -0.878 | -0.297 | -0.494 | -0.159 |  |  |  | 
O=C(O)c1ccc(-c2c[nH]c3ncc(-c4ccccc4)cc23)cc1C1CCCC1 [GSK650394] | -0.785 | -0.353 | -1.03 | -0.485 |  |  |  | 
O=C(Nc1c[nH]nc1-c1nc2ccc(CN3CCOCC3)cc2[nH]1)NC1CC1 [AT9283] | -0.914 | -0.536 | -0.742 | -0.23 |  |  |  | 
O=S(=O)(NCCNC/C=C/c1ccc(Br)cc1)c1cccc2cnccc12 [H 89 2HCl] | -0.703 | -0.188 | -0.68 | -0.178 |  |  |  | 
COc1ccc(N(C(=O)Oc2c(C)cccc2C)c2ccnc(Nc3ccc(N4CCN(C)CC4)cc3)n2)c(OC)c1 [WH-4-023] |  |  |  |  | -0.841 | -0.646 | -0.826 | -0.703
N#Cc1ccc2[nH]c(O)c(-c3ccc(CN4CCOCC4)cn3)c2c1 [AZD1080] | -1.22 | -0.298 | -0.787 | -0.506 |  |  |  | 
Cc1nc(NC(=O)N2CCC[C@H]2C(N)=O)sc1-c1csc(C(C)(C)C)n1 [A66] | -0.746 | -0.323 | -0.988 | -0.295 |  |  |  | 
O=c1cc(-c2cccc3c2Sc2ccccc2S3)oc(N2CCOCC2)c1 [KU-55933 (ATM Kinase Inhibitor)] | -0.601 | -0.342 | -1.32 | -0.282 |  |  |  | 
Nc1nc(N)c2nc(-c3cccc(O)c3)c(-c3cccc(O)c3)nc2n1 [TG100-115] | -0.852 | -0.395 | -0.6 | -0.347 |  |  |  | 
Cc1ccc(NC(=O)c2cccc(N(C)C)c2)cc1NC(=O)c1ccc(O)cc1 [ZM 336372] | -1 | -0.418 | -0.965 | -0.214 |  |  |  | 
O=C(Nc1cccc(Nc2ncc(Br)c(NCCc3cnc[nH]3)n2)c1)N1CCCC1 [BX-912] | -0.512 | -0.277 | -0.986 | -0.165 |  |  |  | 
CN(C)Cc1cccc(N/C(=C2\C(=O)Nc3cc(C(N)=O)ccc32)c2ccccc2)c1 [BIX 02188] | -0.816 | -0.0855 | -0.147 | -0.00337 |  |  |  | 
COc1cc(N2CCC(N)CC2)ccc1Nc1ncc(Cl)c(-c2c[nH]c3ccccc23)n1 [AZD3463] | -0.307 | 0.133 | -0.184 | 0.74 |  |  |  | 
CSc1cccc(Nc2ncc3cc(-c4c(Cl)cccc4Cl)c(=O)n(C)c3n2)c1 [PD173955] | -1.36 | -0.595 | -2.14 | -0.72 |  |  |  | 
CCCCOc1c(C(=O)c2c(F)cc(C)cc2F)c[nH]c2nncc1-2 [BMS-265246] | -0.676 | -0.226 | -1.05 | -0.249 |  |  |  | 
CN(C)C/C=C/C(=O)Nc1cc2c(Nc3ccc(F)c(Cl)c3)ncnc2cc1O[C@H]1CCOC1 [Afatinib (BIBW2992)] | -0.728 | -0.623 | -1.3 | -0.346 |  |  |  | 
NC1(c2ccc(-c3nc4ccn5c(=O)[nH]nc5c4cc3-c3ccccc3)cc2)CCC1 [MK-2206 2HCl] | -1.02 | -0.181 | -0.178 | -0.104 |  |  |  | 
OCCn1cc(-c2ccc3c(c2)CC/C3=N\O)c(-c2ccncc2)n1 [GDC-0879] | -0.639 | -0.397 | -1.04 | -0.0449 |  |  |  | 
O=C(NC[C@H](O)CO)c1ccncc1Nc1ccc(I)cc1F [Pimasertib (AS-703026)] | -0.651 | -0.594 | -0.841 | -0.33 |  |  |  | 
C#Cc1cccc(Nc2ncnc3cc(OCCOC)c(OCCOC)cc23)c1 [Erlotinib HCl (OSI-744)] | -0.54 | -0.264 | -1.09 | -0.278 |  |  |  | 
COc1cccc2cc(-c3nc([C@H]4CC[C@H](C(=O)O)CC4)n4ncnc(N)c34)[nH]c12 [OSI-027] | -0.416 | -0.417 | -1.03 | -0.418 |  |  |  | 
COc1ccc(-c2ccc3c(N4CCOCC4)nc(N4C[C@@H](C)O[C@@H](C)C4)nc3n2)cc1CO [KU-0063794] | -0.516 | -0.302 | -1.21 | -0.299 |  |  |  | 
Cc1[nH]c(/C=C2\C(=O)Nc3ccc(S(=O)(=O)N(C)c4cccc(Cl)c4)cc32)c(C)c1C(=O)N1CCN(C)CC1 [SU11274] | -1.31 | -0.605 | -0.463 | -0.288 |  |  |  | 
N[C@@H]1CCCN(c2c(/C=C3\SC(=O)NC3=O)cccc2-c2ccccc2)C1 [AZD1208] | -0.564 | -0.249 | -0.752 | -0.181 |  |  |  | 
Cc1ccc(-n2nc(C(C)(C)C)cc2NC(=O)Nc2ccc(OCCN3CCOCC3)c3ccccc23)cc1 [BIRB 796 (Doramapimod)] | 0.000298 | -0.405 | -0.873 | -0.248 |  |  |  | 
O=C(NCCCNc1nc(Nc2cccc(NC(=O)N3CCCC3)c2)ncc1I)c1cccs1 [BX-795] | -0.711 | -1.39 | -1.46 | -1.23 |  |  |  | 
